Patent publication US10167284B2, “Spirocyclic compounds as agonists of the muscarinic M1 receptor and/or M4 receptor” (HEPTARES THERAPEUTICS LIMITED, priority 2015, dated 2019)

Target: T1, human muscarinic M2 receptor (Homo sapiens, UniProt P08172)
T1 sequence (P08172 1-466): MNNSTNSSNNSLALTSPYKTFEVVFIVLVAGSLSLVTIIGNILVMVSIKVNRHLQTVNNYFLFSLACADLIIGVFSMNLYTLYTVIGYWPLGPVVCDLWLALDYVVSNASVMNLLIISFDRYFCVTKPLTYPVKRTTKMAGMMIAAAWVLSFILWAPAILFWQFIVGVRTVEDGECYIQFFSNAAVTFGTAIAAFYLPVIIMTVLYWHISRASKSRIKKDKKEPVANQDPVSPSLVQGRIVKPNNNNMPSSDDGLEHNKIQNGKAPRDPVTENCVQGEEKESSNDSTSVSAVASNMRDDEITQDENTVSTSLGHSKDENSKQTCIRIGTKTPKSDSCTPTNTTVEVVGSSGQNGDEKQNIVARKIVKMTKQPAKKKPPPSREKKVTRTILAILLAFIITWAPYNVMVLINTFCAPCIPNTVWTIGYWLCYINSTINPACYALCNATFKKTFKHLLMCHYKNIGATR
Test: Alphascreen Surefire phospho-ERK1/2 functional assay, M2
Settings: CHO, read-out: M2 % Emax cf. ACh, CHO cells stably expressing human M2; Emax relative to ACh

SMILES | Emax [%]
CCCN1C(=O)CC2(CCN(C3CC4(CCN(C(=O)OCC)C4)C3)CC2)N1CC (single isomer, unassigned) [6-9 Isomer 2] | 1
CCOC(=O)N1CCC2(CC(N3CCC4(CC3)CNC(=O)N4)C2)C1 (single isomer, unassigned) [5-2 Isomer 2] | 143
CCOC(=O)N1CCC2(CC(N3CCC4(CC3)CNC(=O)O4)C2)C1 (single isomer, unassigned) [4-3 Isomer 2] | 0
CCOC(=O)N1CCC2(CC(N3CCC4(CC3)OC(=O)N(C3CC3)C4CC)C2)C1 (mixture of isomers) [4-47 mixture of diastereomers] | 7
CCOC(=O)N1CCC2(CC(N3CCC4(CC3)CC(=O)NC4C)C2)C1 (single isomer, unassigned) [3-3 Isomer 2] | 2
CCOC(=O)N1CC2(CC(N3CCC4(CC3)OC(=O)NC4CC)C2)C1 (single isomer, unassigned) [2-1 Isomer 2] | 15
CCOC(=O)N1CCC2(CC(N3CCC4(CC3)OC(=O)N(C)C4CC)C2)C1 (single isomer, unassigned) [4-20 Isomer 3] | 10
CCOC(=O)N1CC2(CCC(N3CCC4(CC3)CNC(=O)C4)C2)C1 (racemic) [7-1 racemic] | 0

Same assay, conditions: pEC50 M2, CHO cells stably expressing human M2; phospho-ERK1/2

SMILES | EC50 [nM]
CCCN1C(=O)CC2(CCN(C3CC4(CCN(C(=O)OCC)C4)C3)CC2)N1CC (single isomer, unassigned) [6-9 Isomer 2] | > 20000
CCOC(=O)N1CCC2(CC(N3CCC4(CC3)CNC(=O)N4)C2)C1 (single isomer, unassigned) [5-2 Isomer 2] | > 20000
CCOC(=O)N1CCC2(CC(N3CCC4(CC3)CNC(=O)O4)C2)C1 (single isomer, unassigned) [4-3 Isomer 2] | > 20000
CCOC(=O)N1CCC2(CC(N3CCC4(CC3)OC(=O)N(C3CC3)C4CC)C2)C1 (mixture of isomers) [4-47 mixture of diastereomers] | > 20000
CCOC(=O)N1CCC2(CC(N3CCC4(CC3)CC(=O)NC4C)C2)C1 (single isomer, unassigned) [3-3 Isomer 2] | > 20000
CCOC(=O)N1CC2(CC(N3CCC4(CC3)OC(=O)NC4CC)C2)C1 (single isomer, unassigned) [2-1 Isomer 2] | > 20000
CCOC(=O)N1CCC2(CC(N3CCC4(CC3)OC(=O)N(C)C4CC)C2)C1 (single isomer, unassigned) [4-20 Isomer 3] | > 20000
CCOC(=O)N1CC2(CCC(N3CCC4(CC3)CNC(=O)C4)C2)C1 (racemic) [7-1 racemic] | > 20000

Target: T2, human muscarinic M4 receptor (Homo sapiens, UniProt P08173)
T2 construct: expressed in transfected cells
T2 sequence (P08173 1-479): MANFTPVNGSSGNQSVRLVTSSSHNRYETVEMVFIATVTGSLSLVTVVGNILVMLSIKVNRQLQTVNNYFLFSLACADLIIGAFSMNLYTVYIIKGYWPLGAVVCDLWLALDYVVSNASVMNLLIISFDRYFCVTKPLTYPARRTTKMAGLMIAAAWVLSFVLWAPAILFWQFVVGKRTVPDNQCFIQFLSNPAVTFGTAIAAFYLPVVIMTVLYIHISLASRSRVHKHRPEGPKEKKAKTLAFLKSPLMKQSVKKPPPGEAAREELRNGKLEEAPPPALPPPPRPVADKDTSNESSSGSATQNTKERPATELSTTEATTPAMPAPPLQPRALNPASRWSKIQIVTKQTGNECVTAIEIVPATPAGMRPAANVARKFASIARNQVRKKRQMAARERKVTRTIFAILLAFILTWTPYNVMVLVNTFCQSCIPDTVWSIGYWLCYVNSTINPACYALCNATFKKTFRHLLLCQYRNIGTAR
Test: Alphascreen Surefire phospho-ERK1/2 functional assay, M4
Type: cell-based
Settings: CHO cells stably expressing human M4; Emax relative to ACh

SMILES | M4 % Emax cf. ACh
CCOC(=O)N1CCC2(CC(N3CCC4(CC3)CNC(=O)O4)C2)C1 (single isomer, unassigned) [4-3 Isomer 2] | (78) %
CCOC(=O)N1CCC2(CC(N3CCC4(CC3)OC(=O)N(C)C4CC)C2)C1 (single isomer, unassigned) [4-20 Isomer 3] | (59) %

Same assay, conditions: CHO cells stably expressing human M4; phospho-ERK1/2; read-out: pEC50 M4 (converted)

SMILES | EC50 [nM]
CCCN1C(=O)CC2(CCN(C3CC4(CCN(C(=O)OCC)C4)C3)CC2)N1CC (single isomer, unassigned) [6-9 Isomer 2] | 39.8
CCOC(=O)N1CCC2(CC(N3CCC4(CC3)CNC(=O)N4)C2)C1 (single isomer, unassigned) [5-2 Isomer 2] | 316
CCOC(=O)N1CCC2(CC(N3CCC4(CC3)CNC(=O)O4)C2)C1 (single isomer, unassigned) [4-3 Isomer 2] | 39.8
CCOC(=O)N1CCC2(CC(N3CCC4(CC3)OC(=O)N(C3CC3)C4CC)C2)C1 (mixture of isomers) [4-47 mixture of diastereomers] | 63.1
CCOC(=O)N1CCC2(CC(N3CCC4(CC3)CC(=O)NC4C)C2)C1 (single isomer, unassigned) [3-3 Isomer 2] | 200
CCOC(=O)N1CC2(CC(N3CCC4(CC3)OC(=O)NC4CC)C2)C1 (single isomer, unassigned) [2-1 Isomer 2] | 126
CCOC(=O)N1CCC2(CC(N3CCC4(CC3)OC(=O)N(C)C4CC)C2)C1 (single isomer, unassigned) [4-20 Isomer 3] | 31.6
CCOC(=O)N1CC2(CCC(N3CCC4(CC3)CNC(=O)C4)C2)C1 (racemic) [7-1 racemic] | > 20000

Same assay, conditions: CHO, read-out: M4 % Emax cf. ACh, CHO cells stably expressing human M4; Emax relative to ACh

SMILES | Emax [%]
CCCN1C(=O)CC2(CCN(C3CC4(CCN(C(=O)OCC)C4)C3)CC2)N1CC (single isomer, unassigned) [6-9 Isomer 2] | 84
CCOC(=O)N1CCC2(CC(N3CCC4(CC3)CNC(=O)N4)C2)C1 (single isomer, unassigned) [5-2 Isomer 2] | 50
CCOC(=O)N1CCC2(CC(N3CCC4(CC3)OC(=O)N(C3CC3)C4CC)C2)C1 (mixture of isomers) [4-47 mixture of diastereomers] | 106
CCOC(=O)N1CCC2(CC(N3CCC4(CC3)CC(=O)NC4C)C2)C1 (single isomer, unassigned) [3-3 Isomer 2] | 81
CCOC(=O)N1CC2(CC(N3CCC4(CC3)OC(=O)NC4CC)C2)C1 (single isomer, unassigned) [2-1 Isomer 2] | 108
CCOC(=O)N1CC2(CCC(N3CCC4(CC3)CNC(=O)C4)C2)C1 (racemic) [7-1 racemic] | 14

Target: human muscarinic M3 receptor (Homo sapiens, UniProt P20309)
Sequence (P20309 whole entry): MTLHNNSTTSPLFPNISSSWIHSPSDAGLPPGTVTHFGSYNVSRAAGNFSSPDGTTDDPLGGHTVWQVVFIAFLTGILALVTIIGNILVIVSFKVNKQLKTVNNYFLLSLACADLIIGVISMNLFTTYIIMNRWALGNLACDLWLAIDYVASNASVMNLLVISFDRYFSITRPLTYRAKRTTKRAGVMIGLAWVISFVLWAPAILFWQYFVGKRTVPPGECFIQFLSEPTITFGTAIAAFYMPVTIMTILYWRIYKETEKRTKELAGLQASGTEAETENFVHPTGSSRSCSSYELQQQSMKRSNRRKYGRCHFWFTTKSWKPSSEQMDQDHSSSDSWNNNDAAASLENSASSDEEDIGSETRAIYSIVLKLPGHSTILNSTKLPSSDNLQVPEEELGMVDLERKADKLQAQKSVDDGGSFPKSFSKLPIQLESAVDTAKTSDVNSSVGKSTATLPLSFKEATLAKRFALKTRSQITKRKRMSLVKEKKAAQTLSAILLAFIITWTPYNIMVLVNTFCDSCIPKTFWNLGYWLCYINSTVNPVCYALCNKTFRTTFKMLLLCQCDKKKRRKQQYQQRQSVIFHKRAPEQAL
Test: Alphascreen Surefire phospho-ERK1/2 functional assay, M3
Settings: not given

SMILES | EC50 [nM]
CCCN1C(=O)CC2(CCN(C3CC4(CCN(C(=O)OCC)C4)C3)CC2)N1CC (single isomer, unassigned) [6-9 Isomer 2] | > 20000
CCOC(=O)N1CCC2(CC(N3CCC4(CC3)CNC(=O)N4)C2)C1 (single isomer, unassigned) [5-2 Isomer 2] | > 20000
CCOC(=O)N1CCC2(CC(N3CCC4(CC3)CNC(=O)O4)C2)C1 (single isomer, unassigned) [4-3 Isomer 2] | > 20000
CCOC(=O)N1CCC2(CC(N3CCC4(CC3)OC(=O)N(C3CC3)C4CC)C2)C1 (mixture of isomers) [4-47 mixture of diastereomers] | > 20000
CCOC(=O)N1CCC2(CC(N3CCC4(CC3)CC(=O)NC4C)C2)C1 (single isomer, unassigned) [3-3 Isomer 2] | > 20000
CCOC(=O)N1CC2(CC(N3CCC4(CC3)OC(=O)NC4CC)C2)C1 (single isomer, unassigned) [2-1 Isomer 2] | > 20000
CCOC(=O)N1CCC2(CC(N3CCC4(CC3)OC(=O)N(C)C4CC)C2)C1 (single isomer, unassigned) [4-20 Isomer 3] | > 20000
CCOC(=O)N1CC2(CCC(N3CCC4(CC3)CNC(=O)C4)C2)C1 (racemic) [7-1 racemic] | > 20000

Same assay, conditions: CHO cells stably expressing human M3; Emax relative to ACh

SMILES | M3 % Emax cf. ACh
CCOC(=O)N1CC2(CC(N3CCC4(CC3)OC(=O)NC4CC)C2)C1 (single isomer, unassigned) [2-1 Isomer 2] | (4) %

Same assay, conditions: CHO, read-out: M3 % Emax cf. ACh, CHO cells stably expressing human M3; Emax relative to ACh

SMILES | Emax [%]
CCCN1C(=O)CC2(CCN(C3CC4(CCN(C(=O)OCC)C4)C3)CC2)N1CC (single isomer, unassigned) [6-9 Isomer 2] | 50
CCOC(=O)N1CCC2(CC(N3CCC4(CC3)CNC(=O)N4)C2)C1 (single isomer, unassigned) [5-2 Isomer 2] | 5
CCOC(=O)N1CCC2(CC(N3CCC4(CC3)CNC(=O)O4)C2)C1 (single isomer, unassigned) [4-3 Isomer 2] | 7
CCOC(=O)N1CCC2(CC(N3CCC4(CC3)OC(=O)N(C3CC3)C4CC)C2)C1 (mixture of isomers) [4-47 mixture of diastereomers] | 7
CCOC(=O)N1CCC2(CC(N3CCC4(CC3)CC(=O)NC4C)C2)C1 (single isomer, unassigned) [3-3 Isomer 2] | 7
CCOC(=O)N1CCC2(CC(N3CCC4(CC3)OC(=O)N(C)C4CC)C2)C1 (single isomer, unassigned) [4-20 Isomer 3] | 4
CCOC(=O)N1CC2(CCC(N3CCC4(CC3)CNC(=O)C4)C2)C1 (racemic) [7-1 racemic] | 4

Target: T3, human muscarinic M1 receptor (Homo sapiens, UniProt P11229)
T3 construct: expressed in transfected cells
T3 sequence (P11229 1-460): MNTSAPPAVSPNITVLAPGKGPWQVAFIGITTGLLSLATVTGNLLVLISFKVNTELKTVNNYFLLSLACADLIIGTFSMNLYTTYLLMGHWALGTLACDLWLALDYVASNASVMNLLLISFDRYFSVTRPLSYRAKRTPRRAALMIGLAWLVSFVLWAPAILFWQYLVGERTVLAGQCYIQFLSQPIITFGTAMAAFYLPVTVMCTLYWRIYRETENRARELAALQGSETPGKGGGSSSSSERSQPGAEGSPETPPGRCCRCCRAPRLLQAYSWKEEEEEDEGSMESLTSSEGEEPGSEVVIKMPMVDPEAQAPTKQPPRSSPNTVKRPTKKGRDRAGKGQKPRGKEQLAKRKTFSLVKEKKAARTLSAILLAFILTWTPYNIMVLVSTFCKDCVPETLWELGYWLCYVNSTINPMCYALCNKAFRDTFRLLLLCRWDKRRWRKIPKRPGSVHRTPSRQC
Test: Alphascreen Surefire phospho-ERK1/2 functional assay, M1
Type: cell-based
Settings: CHO cells stably expressing human M1; Emax relative to ACh
Experimental: CHO cells stably expressing the human muscarinic M1, M2, M3 or M4 receptor were plated (25K/well) onto 96-well tissue culture plates in MEM-alpha+10% dialysed FBS. Once adhered, cells were serum-starved overnight. Agonist stimulation was performed by the addition of 5 μL agonist to the cells for 5 min (37° C.). Media was removed and 50 μL of lysis buffer added. After 15 min, a 4 μL sample was transferred to 384-well plate and 7 μL of detection mixture added. Plates were incubated for 2 h with gentle agitation in the dark and then read on a PHERAstar plate reader.
pEC50 and Emax figures were calculated from the resulting data for each receptor subtype.

SMILES | M1 % Emax cf. ACh
CCOC(=O)N1CCC2(CC(N3CCC4(CC3)CNC(=O)O4)C2)C1 (single isomer, unassigned) [4-3 Isomer 2] | (116) %
CCOC(=O)N1CCC2(CC(N3CCC4(CC3)OC(=O)N(C)C4CC)C2)C1 (single isomer, unassigned) [4-20 Isomer 3] | (97) %

Same assay, conditions: CHO cells stably expressing human M1; phospho-ERK1/2; read-out: pEC50 M1 (converted)

SMILES | EC50 [nM]
CCCN1C(=O)CC2(CCN(C3CC4(CCN(C(=O)OCC)C4)C3)CC2)N1CC (single isomer, unassigned) [6-9 Isomer 2] | > 20000
CCOC(=O)N1CCC2(CC(N3CCC4(CC3)CNC(=O)N4)C2)C1 (single isomer, unassigned) [5-2 Isomer 2] | 126
CCOC(=O)N1CCC2(CC(N3CCC4(CC3)CNC(=O)O4)C2)C1 (single isomer, unassigned) [4-3 Isomer 2] | 20
CCOC(=O)N1CCC2(CC(N3CCC4(CC3)OC(=O)N(C3CC3)C4CC)C2)C1 (mixture of isomers) [4-47 mixture of diastereomers] | 1000
CCOC(=O)N1CCC2(CC(N3CCC4(CC3)CC(=O)NC4C)C2)C1 (single isomer, unassigned) [3-3 Isomer 2] | 158
CCOC(=O)N1CC2(CC(N3CCC4(CC3)OC(=O)NC4CC)C2)C1 (single isomer, unassigned) [2-1 Isomer 2] | 158
CCOC(=O)N1CCC2(CC(N3CCC4(CC3)OC(=O)N(C)C4CC)C2)C1 (single isomer, unassigned) [4-20 Isomer 3] | 158
CCOC(=O)N1CC2(CCC(N3CCC4(CC3)CNC(=O)C4)C2)C1 (racemic) [7-1 racemic] | 5.01

Same assay, conditions: CHO, read-out: M1 % Emax cf. ACh, CHO cells stably expressing human M1; Emax relative to ACh

SMILES | Emax [%]
CCCN1C(=O)CC2(CCN(C3CC4(CCN(C(=O)OCC)C4)C3)CC2)N1CC (single isomer, unassigned) [6-9 Isomer 2] | 17
CCOC(=O)N1CCC2(CC(N3CCC4(CC3)CNC(=O)N4)C2)C1 (single isomer, unassigned) [5-2 Isomer 2] | 92
CCOC(=O)N1CCC2(CC(N3CCC4(CC3)OC(=O)N(C3CC3)C4CC)C2)C1 (mixture of isomers) [4-47 mixture of diastereomers] | 86
CCOC(=O)N1CCC2(CC(N3CCC4(CC3)CC(=O)NC4C)C2)C1 (single isomer, unassigned) [3-3 Isomer 2] | 97
CCOC(=O)N1CC2(CC(N3CCC4(CC3)OC(=O)NC4CC)C2)C1 (single isomer, unassigned) [2-1 Isomer 2] | 106
CCOC(=O)N1CC2(CCC(N3CCC4(CC3)CNC(=O)C4)C2)C1 (racemic) [7-1 racemic] | 26
